# From PubChem BioAssay (NCI)
#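 Cells were grown in 96-well plates and exposed to each compound for 48 hours at five concentrations; endpoints were interpolated linearly between bracketing concentrations, or set to the highest concentration if not reached. At the TGI there is no net growth.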
# How the values were obtained:
# Test in all cases: inhibition of tumour cell growth, NCI panel, 48 h
# 786-0 renal = system: 786-0 renal
# A498 renal = system: A498 renal
# A549 NSCLC = system: A549 NSCLC
# ACHN renal = system: ACHN renal
# BT-549 breast = system: BT-549 breast
# CAKI-1 renal = system: CAKI-1 renal
# CCRF-CEM leukemia = system: CCRF-CEM leukemia
# COLO 205 colon = system: COLO 205 colon
# DU-145 prostate = system: DU-145 prostate
# EKVX NSCLC = system: EKVX NSCLC
# HCC-2998 colon = system: HCC-2998 colon
# HCT-116 colon = system: HCT-116 colon
# HCT-15 colon = system: HCT-15 colon
# HOP-62 NSCLC = system: HOP-62 NSCLC
# HOP-92 NSCLC = system: HOP-92 NSCLC
# HS 578T breast = system: HS 578T breast
# HT29 colon = system: HT29 colon
# IGROV1 ovarian = system: IGROV1 ovarian
# K-562 leukemia = system: K-562 leukemia
# KM12 colon = system: KM12 colon
# LOX IMVI melanoma = system: LOX IMVI melanoma
# M14 melanoma = system: M14 melanoma
# MALME-3M melanoma = system: MALME-3M melanoma
# MCF7 breast = system: MCF7 breast
# MDA-MB-231 breast = system: MDA-MB-231 breast
# MDA-MB-435 = system: MDA-MB-435
# MDA-N = system: MDA-N
# MOLT-4 leukemia = system: MOLT-4 leukemia
# NCI-H226 lung = system: NCI-H226 lung
# NCI-H23 lung = system: NCI-H23 lung
# NCI-H460 lung = system: NCI-H460 lung
# NCI-H522 lung = system: NCI-H522 lung
# NCI/ADR-RES ovarian = system: NCI/ADR-RES ovarian
# OVCAR-3 ovarian = system: OVCAR-3 ovarian
# OVCAR-4 ovarian = system: OVCAR-4 ovarian
# OVCAR-5 ovarian = system: OVCAR-5 ovarian
# OVCAR-8 ovarian = system: OVCAR-8 ovarian
# PC-3 prostate = system: PC-3 prostate
# RXF 393 renal = system: RXF 393 renal
# SF-268 CNS = system: SF-268 CNS
# SF-295 CNS = system: SF-295 CNS
# SK-MEL-2 melanoma = system: SK-MEL-2 melanoma
# SK-MEL-28 melanoma = system: SK-MEL-28 melanoma
# SK-MEL-5 melanoma = system: SK-MEL-5 melanoma
# SK-OV-3 ovarian = system: SK-OV-3 ovarian
# SN12C renal = system: SN12C renal
# SNB-19 CNS = system: SNB-19 CNS
# SNB-75 CNS = system: SNB-75 CNS
# SR leukemia = system: SR leukemia
# SW-620 colon = system: SW-620 colon
# T-47D breast = system: T-47D breast
# TK-10 renal = system: TK-10 renal
# U251 CNS = system: U251 CNS
# UACC-257 melanoma = system: UACC-257 melanoma
# UACC-62 melanoma = system: UACC-62 melanoma
# UO-31 renal = system: UO-31 renal
compound,measurement,setting,value
Cc1cc(-c2nc3ccccc3s2)ccc1NC(=O)[C@@H](N)CCCCN,TGI,786-0 renal,13.2 µM
same,TGI,A498 renal,19.2 µM
same,TGI,A549 NSCLC,12.7 µM
same,TGI,ACHN renal,30.8 µM
same,TGI,BT-549 breast,24.1 µM
same,TGI,CAKI-1 renal,20.8 µM
same,TGI,CCRF-CEM leukemia,22.5 µM
same,TGI,COLO 205 colon,24.8 µM
same,TGI,DU-145 prostate,25.2 µM
same,TGI,EKVX NSCLC,25.1 µM
same,TGI,HCC-2998 colon,24.5 µM
same,TGI,HCT-116 colon,19.9 µM
same,TGI,HCT-15 colon,24.3 µM
same,TGI,HOP-62 NSCLC,25.9 µM
same,TGI,HOP-92 NSCLC,33.3 µM
same,TGI,HS 578T breast,45.3 µM
same,TGI,HT29 colon,16.9 µM
same,TGI,IGROV1 ovarian,17.2 µM
same,TGI,K-562 leukemia,> 54 µM
same,TGI,KM12 colon,8.03 µM
same,TGI,LOX IMVI melanoma,5.92 µM
same,TGI,M14 melanoma,7.88 µM
same,TGI,MALME-3M melanoma,34.8 µM
same,TGI,MCF7 breast,11.7 µM
same,TGI,MDA-MB-231 breast,25.3 µM
same,TGI,MDA-MB-435,10 µM
same,TGI,MDA-N,9.75 µM
same,TGI,MOLT-4 leukemia,17.1 µM
same,TGI,NCI-H226 lung,17.8 µM
same,TGI,NCI-H23 lung,17.5 µM
same,TGI,NCI-H460 lung,20.8 µM
same,TGI,NCI-H522 lung,19.2 µM
same,TGI,NCI/ADR-RES ovarian,36.5 µM
same,TGI,OVCAR-3 ovarian,26.3 µM
same,TGI,OVCAR-4 ovarian,21.3 µM
same,TGI,OVCAR-5 ovarian,25.7 µM
same,TGI,OVCAR-8 ovarian,17.1 µM
same,TGI,PC-3 prostate,30.1 µM
same,TGI,RXF 393 renal,16.5 µM
same,TGI,SF-268 CNS,14.5 µM
same,TGI,SF-295 CNS,10.6 µM
same,TGI,SK-MEL-2 melanoma,30 µM
same,TGI,SK-MEL-28 melanoma,31.3 µM
same,TGI,SK-MEL-5 melanoma,28 µM
same,TGI,SK-OV-3 ovarian,27.2 µM
same,TGI,SN12C renal,32.9 µM
same,TGI,SNB-19 CNS,29.4 µM
same,TGI,SNB-75 CNS,13 µM
same,TGI,SR leukemia,> 54.7 µM
same,TGI,SW-620 colon,25.3 µM
same,TGI,T-47D breast,1.14 µM
same,TGI,TK-10 renal,23.2 µM
same,TGI,U251 CNS,9.88 µM
same,TGI,UACC-257 melanoma,37.8 µM
same,TGI,UACC-62 melanoma,29.2 µM
same,TGI,UO-31 renal,19.3 µM
